Laboratory results taken from patent publication US20130317073A1, “METHODS OF PEST CONTROL IN SOYBEAN” (SYNGENTA LIMITED, priority 2011, published 2013).

Test system: Euschistus heros
Test: Euschistus heros (neotropical brown stink bug) contact/feeding activity on sprayed soybean plants
Assay type: in vivo
Settings: 120 h, N-2 nymphs on sprayed 2 week old soybean plants, evaluation 5 days after infestation, average of two replicates, read-out: mortality and growth effects; for mortality at 3 ppm: Rate 3 ppm; for mortality at 6 ppm: Rate 6 ppm; for mortality at 12.5 ppm: Rate 12.5 ppm
Experimental: Euschistus heros (Neotropical Brown Stink Bug) (Contact/Feeding Activity)
2 week old soybean plants are sprayed in a turn table spray chamber with the diluted spray solutions. After drying, 2 soybean seeds are added and plants are infested with 10 N-2 nymphs of the neotropical brown stink bug Euschistus heros in plastic test boxes. Boxes are incubated in a climate chamber at 25° C. and 60% RH. Evaluation is done 5 days after infestation on mortality and growth effects. The data is an average of two replicates.

Structure (SMILES) | mortality at 3 ppm [%] | mortality at 6 ppm [%] | mortality at 12.5 ppm [%]
Cc1cc(C2=NOC(c3cc(Cl)cc(Cl)c3)(C(F)(F)F)C2)ccc1C(=O)NC1CSC1 (stereo not drawn) [Compound 1] | 65 | 80 | 85
Cc1cc(C2=NOC(c3cc(Cl)cc(Cl)c3)(C(F)(F)F)C2)ccc1C(=O)NC1(C)CSC1 (stereo not drawn) [Compound 3] | 0 | 20 | 75
Cc1cc(C2=NOC(c3cc(Cl)cc(Cl)c3)(C(F)(F)F)C2)ccc1C(=O)NC1CS(=O)(=O)C1 (stereo not drawn) [Compound 2] | 65 | 95 | 95
O=C(CNC(=O)c1ccc(C2=NOC(c3cc(Cl)cc(Cl)c3)(C(F)(F)F)C2)c2ccccc12)CC(F)(F)F (stereo not drawn) [Compound 6] | 95 | 100 | 95
Cc1cc(C2=NOC(c3cc(Cl)cc(Cl)c3)(C(F)(F)F)C2)ccc1C(=O)NCC(F)(F)F (stereo not drawn) [Compound 9] | 15 | 75 | 70
COC(=O)N1CC(NC(=O)c2ccc(C3=NOC(c4cc(Cl)cc(Cl)c4)(C(F)(F)F)C3)cc2C)C1 (stereo not drawn) [Compound 4] | 15 | 25 | 35
Cc1cc(C2=NOC(c3cc(Cl)cc(Cl)c3)(C(F)(F)F)C2)ccc1C(=O)NCC(=O)CC(F)(F)F (stereo not drawn) [Compound 5] | 85 | 90 | 100
O=C(CNC(=O)c1ccc(C2=NOC(c3cc(Cl)cc(Cl)c3)(C(F)(F)F)C2)cc1)CC(F)(F)F (stereo not drawn) [Compound 7] | 5 | 20 | 60
CCCCNC(=O)c1ccc(C2=NOC(c3cc(Cl)cc(Cl)c3)(C(F)(F)F)C2)cc1C (stereo not drawn) [Compound 8] | 5 | 35 | 95
